Non-standard residues stand in square brackets, D forms with d. Residues, ends and D or L forms follow the SMILES beside them.
Tests used:
MCF-7/MUC1-C cells [1] = assay: Cell death by trypan blue staining; assay type: cell-based, human
From the text: (§1) (FIG. 2B) Control MCF-7/vector (diamonds) and MCF-7/MUC1-C (triangles) cells were left untreated.

BT-474/CshRNA cells [2] = assay: Cell growth (viable cell number); Chou-Talalay drug combination; assay type: cell-based, human; conditions: BT-474 and BT-474/CshRNA cells; 5 μM tamoxifen on days 0 and 2; vs untreated (FIG. 1B)
BT-474/MUC1shRNA cells [3] = assay: Cell death by trypan blue staining; assay type: cell-based, human; conditions: 5 μM tamoxifen on days 0 and 2; compared to BT-474/CshRNA cells (FIG. 1C, left)
From the text: Cell number is expressed as the mean±SD of three replicates. […] The results (mean±SD of three replicates) are expressed as the percentage of cell death as determined by trypan blue staining on the indicated days (left) or on day 4 (right). […] Colony number (>30 cells) is expressed as the mean±SD of three replicates (right). […] Colony number (>30 cells) is expressed as the mean±SD of three replicates.

BT-474/MUC1shRNA cells [4] = conditions: 5 μM tamoxifen on days 0 and 2 (FIG. 1B)
From the text: (§2) The multiple effect-level isobologram analyses are shown for the ED50 (X), ED75 (+) and ED90 (⊙) values.

MCF-7/MUC1-C cells [5] = assay: Colony formation assay; assay type: cell-based, human; conditions: 5 μM tamoxifen every other day for 7 days (FIG. 2E, right)
Protocol: as §1
(§3) FIGS. 5A-G. Tamoxifen-resistant cells are sensitive to MUC1-C inhibition. […] Lysates were immunoblotted with the indicated antibodies. (FIG. 5B) BT-474/CshRNA cells were left untreated (diamonds) or treated with 5 μM GO-203 (squares) each day for the indicated days. […] Lysates were immunoblotted with the indicated antibodies. (FIG. 5E) MCF-7/MUC1-C cells were left untreated (diamonds) or treated with 5 μM GO-203 (squares) each day for the indicated days. […] Soluble chromatin was precipitated with anti-ERα (left), anti-CBP (right) or a control IgG. The precipitates were analyzed for Rab31 promoter sequences.
(§4) Colony formation assays. Cells were seeded in 6-well plates for 24 h and then left untreated or treated with inhibitor. After 7-14 d, the cells were washed and stained with 0.5% crystal violet in 25% methanol. Colonies >30 cells were counted in triplicate wells.

BT-474/CshRNA cells [6] = assay: Colony formation assay; assay type: cell-based, human; conditions: 5 μM tamoxifen every other day for 14 days (FIG. 1E, left)
Protocol: as §3, §4

BT-474/MUC1shRNA cells [7] = assay: Colony formation assay; assay type: cell-based, human; conditions: 5 μM tamoxifen every other day for 14 days (FIG. 1E, right)
Protocol: as §4

MCF-7/vector cells [8] = assay: Colony formation assay; assay type: cell-based, human; conditions: 5 μM tamoxifen every other day for 7 days (FIG. 2E, left)
From the text: (FIG. 2A) Lysates from wild-type (WT) MCF-7 cells, MCF-7/vector and MCF-7/MUC1-C cells were immunoblotted with the indicated antibodies. (FIG. 2B) Control MCF-7/vector (diamonds) and MCF-7/MUC1-C (triangles) cells were left untreated. […] Cell number is expressed as the mean±SD of three replicates. […] The results (mean±SD of three replicates) are expressed as the percentage of cell death as determined by trypan blue staining on the indicated days (left) or on day 4 (right). (FIG. 2D) MCF-7/vector and MCF-7/MUC1-C cells were seeded at 500 cells/well (6-well plate), grown for 7 days and then stained with crystal violet (left). Colony number (>30 cells) is expressed as the mean±SD of three replicates (right). […] Colony number (>30 cells) is expressed as the mean±SD of three replicates. Colony formation assays. Cells were seeded in 6-well plates for 24 h and then left untreated or treated with inhibitor. After 7-14 d, the cells were washed and stained with 0.5% crystal violet in 25% methanol. Colonies >30 cells were counted in triplicate wells.

MCF-7/vector cells [9] = assay: Cell growth (cell number); Chou-Talalay drug combination; assay type: cell-based, human; conditions: MCF-7 and MCF-7/vector cells; 5 μM tamoxifen on days 0, 2 and 4 (FIG. 2B)
From the text: as §2

MCF-7/MUC1-C cells [10] = assay: Cell growth (viable cell number); Chou-Talalay drug combination; assay type: cell-based, human; conditions: 5 μM tamoxifen on days 0, 2 and 4 (FIG. 2B)
From the text: Lysates were immunoblotted with the indicated antibodies. […] Lysates were immunoblotted with the indicated antibodies.
(§5) (FIG. 6A) MCF-7/MUC1-C cells were infected with lentiviruses expressing the control shRNA (CshRNA) or the MUC1shRNA. Lysates from wild-type (WT) MCF-7 cells, MCF-7/MUC1-C/CshRNA and MCF-7/MUC1-C/MUC1shRNA cells were immunoblotted with the indicated antibodies. […] The results (mean±SD of three replicates) are expressed as viable cell number. […] The multiple effect-level isobologram analyses are shown for the ED50 (X), ED75 (+) and ED90 (⊙) values.

[11] = test system: MCF-7/MUC1-C/MUC1shRNA cells; assay: Cell growth (viable cell number); assay type: cell-based, human; conditions: 5 μM tamoxifen days 0 and 2 (FIG. 6B)
From the text: as §5

MUC1-negative 293T cells = assay: Cell death by trypan blue staining; assay type: cell-based, human; conditions: GO-203 each day for 4 days, day 4 (FIG. 8)
From the text: FIG. 8. 293T cells were left untreated or treated with GO-203 each day for 4 days.

With 4-hydroxytamoxifen [OHTAM] the “loss of viability (percentage of cell death)” value (MCF-7/MUC1-C cells [1]; 10 nM OHTAM on days 0 and 2, day 4, compared to MCF-7/vector cells (FIG. 2C, right)) was “less sensitive”.

`CC/C(=C(\c1ccccc1)c1ccc(OCCN(C)C)cc1)c1ccccc1` [tamoxifen] was tested, and the “growth (cell number)” value (BT-474/CshRNA cells [2]) was “unaffected”, the “loss of viability (percentage of cell death)” value (BT-474/MUC1shRNA cells [3]) was “marked loss of viability” and the “loss of viability (percentage of cell death)” value (MCF-7/MUC1-C cells [1]; 5 μM tamoxifen on days 0, 2 and 4, compared to MCF-7/vector cells (FIG. 2C, left)) was “less sensitive”. The “proliferation (cell number)” value (BT-474/MUC1shRNA cells [4]) was “clearly inhibited”, the clonogenic survival (MCF-7/MUC1-C cells [5]) was “but not clonogenic survival” and the “ability to form colonies” value (BT-474/CshRNA cells [6]) was “little if any effect”. The colony formation (BT-474/MUC1shRNA cells [7]) was “marked decrease”, the formation of colonies (MCF-7/vector cells [8]) was “effective in decreasing” and the “growth (cell number)” value (MCF-7/vector cells [9]) was “inhibited”. For the same molecule, the “proliferation (cell number)” value (MCF-7/MUC1-C cells [10]) was “little effect” and the “sensitivity to tamoxifen treatment (viable cell number)” value [11] was “regained sensitivity”.

For `N=C(N)NCCC[C@@H](N)C(=O)N[C@H](CCCNC(=N)N)C(=O)N[C@H](CCCNC(=N)N)C(=O)N[C@H](CCCNC(=N)N)C(=O)N[C@H](CCCNC(=N)N)C(=O)N[C@H](CCCNC(=N)N)C(=O)N[C@H](CCCNC(=N)N)C(=O)N[C@H](CCCNC(=N)N)C(=O)N[C@H](CCCNC(=N)N)C(=O)N[C@H](CS)C(=O)N[C@H](CCC(N)=O)C(=O)N[C@H](CS)C(=O)N[C@H](CCCNC(=N)N)C(=O)N[C@H](CCCNC(=N)N)C(=O)N[C@H](CCCCN)C(=O)N[C@H](CC(N)=O)C(=O)O` [GO-203, [R]9-CQCRRKN] (H-[dR][dR][dR][dR][dR][dR][dR][dR][dR][dC][dQ][dC][dR][dR][dK][dN]-OH), the “survival (percentage of cell death)” value (MUC1-negative 293T cells) was “little if any effect”.
